Data published in patent US6372795B1, “Cosmetic compositions containing substituted amide derivatives” (Unilever Home and Personal Care USA, A Division of Conopco, …, priority 2000, dated 2002).
Where “and” joins values, the source holds several entries; their conditions need not be identical. Equal entries are not always repeated. Where two headings read alike, the source gives them in different places.

Tested on: human sebocytes
Test: Sebum suppression in secondary cultures of human sebocytes (14C-acetate label remaining in sebocytes)
Assay type: cell-based
Details: for sebum suppressive activity in the presence of a retinoid (combined with retinol): compared with compound alone, summary in words; for % of Control / activity at 1 µM / activity at 10 µM: human sebocytes; for activity at 1 µM / activity at 10 µM: Homo sapiens, read-out: % of Control
Protocol: Compounds A through G were tested for their potential to suppress sebum expression, alone or in the presence of a retinoid.
Secondary cultures of human sebocytes obtained from an adult […] were grown in 48-well tissue culture plates (Costar Corp.; Cambridge, Ma.) or 96-well tissue culture plates (Packard Co.; Meriden, Conn.) until confluent. Sebocyte growth medium consisted of Clonetics Keratinocyte Basal Medium (KBM) supplemented with 14 μg/ml bovine pituitary extract, 0.4 μg/ml hydrocortisone, 5 μg/ml insulin, 10 ng/ml epidermal growth factor, 1.2×10^-10 M cholera toxin, 100 units/ml penicillin, and 100 μg/ml streptomycin. All cultures were incubated at 37° C. in the presence of 7.5% CO2. Medium was changed three times per week.
On the day of experimentation, the growth medium was removed and the sebocytes washed three times with sterile Dulbecco's Modified Eagle Medium (DMEM; phenol red free). Fresh DMEM was added to each sample (duplicates, triplicates, or quadruplicates depending on the experiment) with 5 microliter of test agent solubilized in ethanol either alone or in the presence of one or 10 micromolar of retinol. Controls consisted of addition of ethanol alone, retinol alone, or phenol red, which has estrogen-like activity and is included as a positive control.
Each plate was returned to the incubator for 20 hours followed by the addition of 14C-acetate buffer (5 mM final concentration, 56 mCi/mmol specific activity). Sebocytes were returned to the incubator for four hours afterwhich each culture was rinsed three times with phosphate buffered saline to remove unbound label. Radioactive label remaining in the sebocytes was harvested and counted using a Beckman scintillation counter.

[1] = 10 μM test compound + 1 μM Retinol
[2] = 10 μM test compound + 10 μM Retinol
[3] = 1 μM test compound + 1 μM Retinol
[4] = 1 μM test compound + 10 μM Retinol
[5] = 1 μM test compound alone, 20 h + 4 h 14C-acetate

| Structure (SMILES) | sebum suppressive activity in the presence of a retinoid (combined with retinol) | activity at 1 µM [3] [%] | activity at 1 µM [4] [%] | activity at 1 µM [5] [%] | activity at 10 µM (10 μM test compound alone) [%] | other results |
| --- | --- | --- | --- | --- | --- | --- |
| Cc1cccc(N2CCN(C(=O)CC3C=CC(CC(=O)N4CCN(c5cccc(C)c5)C(C)C4)C3)CC2C)c1 (centres unmarked) [G] | improved sebum suppressive activity | – | – | – | – | – |
| O=C(Nc1ccc(O)cc1)Nc1cccc(C(F)(F)F)c1 [Compound E] | improved sebum suppressive activity | – | – | – | – | – |
| CCOC(=O)c1ccc(NC(=O)Nc2ccc(O)cc2)cc1 [Compound F] | improved sebum suppressive activity | 71 | 76.2 | 84 | 57.4 | % of Control [1]: 53.1% and 73.4%; % of Control [2]: 63.4% and 40.4%; % of Control (10 μM test compound alone, 10 µM): 72.0% |
| CCOC(=O)c1ccc(NC(=O)Nc2cccc(C(C)O)c2)cc1 (centres unmarked) [Compound D] | improved sebum suppressive activity | 82.8 | 78 | 82.4 | 58.5 | activity at 10 µM [1]: 66.8%; activity at 10 µM [2]: 25% |
| CC1=C(/C=C/C(C)=C/C=C/C(C)=C/CO)C(C)(C)CCC1 [Retinol, retinol, reference compound] | – | – | – | – | – | % of Control (1 μM Retinol alone): 99.9%; % of Control (10 μM Retinol alone): 103.7% and 100.9% and 100.1%; sebum suppressive activity (substance alone, summary in words of Tables 1-12): inactive |
